Legend:
Format in all cases: in vivo
[1] = tested on: barnyardgrass (Echinochloa crus-galli); assay: Test B flooded paddy test; conditions: Flood, 0 to 100 scale where 0 is no effect and 100 is complete control, 13 to 15 d
Description: (§1) Plant species in the flooded paddy test selected from rice (Oryra sativa), sedge, umbrella (small-flower umbrella sedge, Cyperus difformis), ducksalad (Heteranthera limosa), and barnyardgrass (Echinochloa crus-galli) were grown to the 2-leaf stage for testing. At time of treatment, test pots were flooded to 3 cm above the soil surface, treated by application of test compounds directly to the paddy water, and then maintained at that water depth for the duration of the test. Treated plants and controls were maintained in a greenhouse for 13 to 15 d, after which time all species were compared to controls and visually evaluated. Plant response ratings, summarized in Table B, are based on a scale of 0 to 100 where 0 is no effect and 100 is complete control. A dash (-) response means no test result.

rice (Oryra sativa) = assay: Test B flooded paddy test; conditions: Flood, 0 to 100 scale where 0 is no effect and 100 is complete control, 13 to 15 d
Description: as §1

[2] = tested on: sedge, umbrella (small-flower umbrella sedge, Cyperus difformis); assay: Test B flooded paddy test; conditions: Flood, 0 to 100 scale where 0 is no effect and 100 is complete control, 13 to 15 d
Description: as §1

[3] = tested on: ducksalad (Heteranthera limosa); assay: Test B flooded paddy test; conditions: Flood, 0 to 100 scale where 0 is no effect and 100 is complete control, 13 to 15 d
Description: as §1

[4] = tested on: barnyardgrass (Echinochloa crus-galli); assay: Test A preemergence; conditions: for Plant response rating, Barnyardgrass: 125 g ai/ha; for Barnyardgrass plant response rating (0 to 100 scale, 0 is no effect, 100 is complete control): 500 g ai/ha, visual injury approx. 10 d
Excerpt: (§2) Seeds of plant species selected from barnyardgrass (Echinochloa crus-galli), Kochia (Kochia scoparia), ragweed (common ragweed, Ambrosia elatior), ryegrass, Italian (Italian ryegrass, Lolium multiflorum), crabgrass, large (Digitaria sanguinalis), giant foxtail (Setaria faberii), green foxtail (Setaria viridis), morningglory (Ipomoea spp.), pigweed (Amaranthus retroflexus), velvetleaf (Abutilon theophrasti), wheat (Triticum aestivum), and corn (Zea mays) were planted into a blend of loam soil and sand and treated preemergence with a directed soil spray using test chemicals formulated in anon-phytotoxic solvent mixture which included a surfactant.
(§3) At the same time, plants selected from these crop and weed species and also blackgrass (Alopecurus myosuroides), and Galium (catchweed bedstraw, Galium aparine) were planted in pots containing the same blend of loam soil and sand and treated with postemergence applications of test chemicals formulated in the same manner. Plants ranged in height from 2 to 10 cm and were in the one- to two-leaf stage for the postemergence treatment. Treated plants and untreated controls were maintained in a greenhouse for approximately 10 d, after which time all treated plants were compared to untreated controls and visually evaluated for injury. Plant response ratings, summarized in Table A, are based on a 0 to 100 scale where 0 is no effect and 100 is complete control. A dash (-) response means no test result.

[5] = tested on: ragweed (common ragweed, Ambrosia elatior); assay: Test A preemergence; conditions: for Plant response rating, Ragweed: 125 g ai/ha; for Ragweed plant response rating (0 to 100 scale, 0 is no effect, 100 is complete control): 500 g ai/ha, visual injury approx. 10 d
Excerpt: as §2, §3

[6] = tested on: giant foxtail (Setaria faberii); assay: Test A preemergence; conditions: for Plant response rating, Foxtail, Giant: 125 g ai/ha; for Foxtail, Giant plant response rating (0 to 100 scale, 0 is no effect, 100 is complete control): 500 g ai/ha, visual injury approx. 10 d
Excerpt: as §2, §3

[7] = tested on: ryegrass, Italian (Italian ryegrass, Lolium multiflorum); assay: Test A preemergence; conditions: for Plant response rating, Ryegrass, Italian: 125 g ai/ha; for Ryegrass, Italian plant response rating (0 to 100 scale, 0 is no effect, 100 is complete control): 500 g ai/ha, visual injury approx. 10 d
Excerpt: as §2, §3

Kochia (Kochia scoparia) [8] = assay: Test A preemergence; conditions: for Plant response rating, Kochia: 125 g ai/ha; for Kochia plant response rating (0 to 100 scale, 0 is no effect, 100 is complete control): 500 g ai/ha, visual injury approx. 10 d
Excerpt: as §2, §3

[9] = tested on: pigweed (Amaranthus retroflexus); assay: Test A preemergence; conditions: for Plant response rating, Pigweed: 125 g ai/ha; for Pigweed plant response rating (0 to 100 scale, 0 is no effect, 100 is complete control): 500 g ai/ha, visual injury approx. 10 d
Excerpt: as §2, §3

corn (Zea mays) = assay: Test A postemergence; conditions: for Corn plant response rating: 125 g ai/ha, visual injury rating on 0 to 100 scale (0 no effect, 100 complete control), approx. 10 d; for Plant response rating, Corn: 500 g ai/ha
Procedure, shortened: (§4)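 Seeds sprayed preemergence with a directed soil spray, or plants at 2 to 10 cm height and one- to two-leaf stage sprayed postemergence, with test chemicals in a non-phytotoxic solvent mixture containing surfactant, in loam soil–sand blend. Injury rated visually against untreated controls after about 10 d in greenhouse, 0 (no effect) to 100 (complete control).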

[10] = tested on: barnyardgrass (Echinochloa crus-galli); assay: Test A postemergence; conditions: for Barnyardgrass plant response rating: 125 g ai/ha, visual injury rating on 0 to 100 scale (0 no effect, 100 complete control), approx. 10 d; for Plant response rating, Barnyardgrass: 500 g ai/ha
Procedure, shortened: as §4

[11] = tested on: ragweed (common ragweed, Ambrosia elatior); assay: Test A postemergence; conditions: for Ragweed plant response rating: 125 g ai/ha, visual injury rating on 0 to 100 scale (0 no effect, 100 complete control), approx. 10 d; for Plant response rating, Ragweed: 500 g ai/ha
Procedure, shortened: as §4

[12] = tested on: giant foxtail (Setaria faberii); assay: Test A postemergence; conditions: for Foxtail, Giant plant response rating: 125 g ai/ha, visual injury rating on 0 to 100 scale (0 no effect, 100 complete control), approx. 10 d; for Plant response rating, Foxtail, Giant: 500 g ai/ha
Procedure, shortened: as §4

[13] = tested on: ryegrass, Italian (Italian ryegrass, Lolium multiflorum); assay: Test A postemergence; conditions: for Ryegrass, Italian plant response rating: 125 g ai/ha, visual injury rating on 0 to 100 scale (0 no effect, 100 complete control), approx. 10 d; for Plant response rating, Ryegrass, Italian: 500 g ai/ha
Procedure, shortened: as §4

Kochia (Kochia scoparia) [14] = assay: Test A postemergence; conditions: for Kochia plant response rating: 125 g ai/ha, visual injury rating on 0 to 100 scale (0 no effect, 100 complete control), approx. 10 d; for Plant response rating, Kochia: 500 g ai/ha
Procedure, shortened: as §4

[15] = tested on: Galium (catchweed bedstraw, Galium aparine); assay: Test A postemergence; conditions: for Galium plant response rating: 125 g ai/ha, visual injury rating on 0 to 100 scale (0 no effect, 100 complete control), approx. 10 d; for Plant response rating, Galium: 500 g ai/ha
Procedure, shortened: as §4

[16] = tested on: blackgrass (Alopecurus myosuroides); assay: Test A postemergence; conditions: for Blackgrass plant response rating: 125 g ai/ha, visual injury rating on 0 to 100 scale (0 no effect, 100 complete control), approx. 10 d; for Plant response rating, Blackgrass: 500 g ai/ha
Procedure, shortened: as §4

[17] = tested on: pigweed (Amaranthus retroflexus); assay: Test A postemergence; conditions: for Pigweed plant response rating: 125 g ai/ha, visual injury rating on 0 to 100 scale (0 no effect, 100 complete control), approx. 10 d; for Plant response rating, Pigweed: 500 g ai/ha
Procedure, shortened: as §4

[18] = tested on: wheat (Triticum aestivum); assay: Test A postemergence; conditions: for Wheat plant response rating: 125 g ai/ha, visual injury rating on 0 to 100 scale (0 no effect, 100 complete control), approx. 10 d; for Plant response rating, Wheat: 500 g ai/ha
Procedure, shortened: as §4

[19] = preemergence, 0 to 100 scale (0 no effect, 100 complete control)
[20] = postemergence, 0 to 100 scale, 0 no effect, 100 complete control
[21] = Preemergence, visual injury after approximately 10 d, 0 to 100 scale where 0 is no effect and 100 is complete control
[22] = Postemergence, 0 to 100 scale where 0 is no effect and 100 is complete control

SMILES	Plant response rating, Barnyardgrass ([1]; 250 g ai/ha)	Plant response rating, Rice (rice (Oryra sativa); 250 g ai/ha)	Plant response rating, Sedge, Umbrella ([2]; 250 g ai/ha)	Plant response rating, Ducksalad ([3]; 250 g ai/ha)	Barnyardgrass plant response rating (0 to 100 scale, 0 is no effect, 100 is complete control) ([4]; Preemergence)	Ragweed plant response rating (0 to 100 scale, 0 is no effect, 100 is complete control) ([5]; Preemergence)	Foxtail, Giant plant response rating (0 to 100 scale, 0 is no effect, 100 is complete control) ([6]; Preemergence)	Ryegrass, Italian plant response rating (0 to 100 scale, 0 is no effect, 100 is complete control) ([7]; Preemergence)	Kochia plant response rating (0 to 100 scale, 0 is no effect, 100 is complete control) (Kochia (Kochia scoparia) [8]; Preemergence)	Pigweed plant response rating (0 to 100 scale, 0 is no effect, 100 is complete control) ([9]; Preemergence)	Corn plant response rating (corn (Zea mays); postemergence)	Barnyardgrass plant response rating ([10]; postemergence)	Ragweed plant response rating ([11]; postemergence)	Foxtail, Giant plant response rating ([12]; postemergence)	Ryegrass, Italian plant response rating ([13]; postemergence)	Kochia plant response rating (Kochia (Kochia scoparia) [14]; postemergence)	Galium plant response rating ([15]; postemergence)	Blackgrass plant response rating ([16]; postemergence)	Pigweed plant response rating ([17]; postemergence)	Wheat plant response rating ([18]; postemergence)	further results
Cc1cc(C2CN(C)C(=O)C2C(=O)Nc2ccc(F)cc2F)ccc1F (stereo not drawn) [Compound 404]	80	30	0	100	90	50	90	80	70	60	40	90	30	90	40	60	50	40	20	50	Plant response rating, Barnyardgrass [4, 19]: 90; Plant response rating, Ragweed [5, 19]: 0; Plant response rating, Foxtail, Giant [6, 19]: 90; Plant response rating, Ryegrass, Italian [7, 19]: 0; Plant response rating, Kochia (Kochia (Kochia scoparia) [8]; [19]): 60; Plant response rating, Pigweed [9, 19]: 30; Plant response rating, Corn (corn (Zea mays); [20]): 80; Plant response rating, Barnyardgrass [10, 20]: 90; Plant response rating, Ragweed [11, 20]: 50; Plant response rating, Foxtail, Giant [12, 20]: 90; Plant response rating, Ryegrass, Italian [13, 20]: 70; Plant response rating, Kochia (Kochia (Kochia scoparia) [14]; [20]): 70; Plant response rating, Galium [15, 20]: 50; Plant response rating, Blackgrass [16, 20]: 60; Plant response rating, Pigweed [17, 20]: 60; Plant response rating, Wheat [18, 20]: 80
COc1ccc(NC(=O)C2C(=O)NCC2c2ccc(F)c(F)c2)cc1F (stereo not drawn) [Compound 415]	–	–	–	–	0	0	0	0	0	0	0	0	0	0	0	0	0	0	0	0	Plant response rating, Barnyardgrass ([1]; 500 g ai/ha): 0; Plant response rating, Rice (rice (Oryra sativa); 500 g ai/ha): 0; Plant response rating, Sedge, Umbrella ([2]; 500 g ai/ha): 0; Plant response rating, Ducksalad ([3]; 500 g ai/ha): 0; Plant response rating, Barnyardgrass [4, 19]: 0; Plant response rating, Ragweed [5, 19]: 0; Plant response rating, Foxtail, Giant [6, 19]: 0; Plant response rating, Ryegrass, Italian [7, 19]: 0; Plant response rating, Kochia (Kochia (Kochia scoparia) [8]; [19]): 0; Plant response rating, Pigweed [9, 19]: 0; Plant response rating, Corn (corn (Zea mays); [20]): 0; Plant response rating, Barnyardgrass [10, 20]: 0; Plant response rating, Ragweed [11, 20]: 0; Plant response rating, Foxtail, Giant [12, 20]: 0; Plant response rating, Ryegrass, Italian [13, 20]: 0; Plant response rating, Kochia (Kochia (Kochia scoparia) [14]; [20]): 0; Plant response rating, Galium [15, 20]: 0; Plant response rating, Blackgrass [16, 20]: 0; Plant response rating, Pigweed [17, 20]: 0; Plant response rating, Wheat [18, 20]: 0
O=C1NCC(c2cc(F)cc(Cl)c2)C1C(=O)Nc1ccc(F)cc1F (stereo not drawn) [Compound 493]	60	25	0	80	90	30	90	20	20	0	0	90	20	90	20	0	30	20	0	0	Plant response rating, Barnyardgrass [4, 21]: 90; Plant response rating, Ragweed [5, 21]: 0; Plant response rating, Foxtail, Giant [6, 21]: 90; Plant response rating, Ryegrass, Italian [7, 21]: 0; Plant response rating, Kochia (Kochia (Kochia scoparia) [8]; [21]): 0; Plant response rating, Pigweed [9, 21]: 0; Plant response rating, Corn (corn (Zea mays); [22]): 70; Plant response rating, Barnyardgrass [10, 22]: 90; Plant response rating, Ragweed [11, 22]: 20; Plant response rating, Foxtail, Giant [12, 22]: 90; Plant response rating, Ryegrass, Italian [13, 22]: 50; Plant response rating, Kochia (Kochia (Kochia scoparia) [14]; [22]): 20; Plant response rating, Galium [15, 22]: 40; Plant response rating, Blackgrass [16, 22]: 50; Plant response rating, Pigweed [17, 22]: 0; Plant response rating, Wheat [18, 22]: 30
